According to patent US20040006127A1, “Activation of the cystic fibrosis transmembrane conductance regulator chloride channel” (priority 2000, published 2004):
“Also recorded” adds a separate entry of the source.

Key:
[1] = biological target: T1, wild-type human CFTR (Homo sapiens, UniProt P13569); assay: CFTR Cl- currents in excised inside-out membrane patches from C127 cells (time course, I-V studies); assay type: biochemical; conditions: for effect on channel activity at positive voltages: phloxine B 40 μM; for concentration that maximally stimulated channel activity: excised membrane patches
T1 construct: expressed in transfected cells
T1 sequence (P13569 whole entry): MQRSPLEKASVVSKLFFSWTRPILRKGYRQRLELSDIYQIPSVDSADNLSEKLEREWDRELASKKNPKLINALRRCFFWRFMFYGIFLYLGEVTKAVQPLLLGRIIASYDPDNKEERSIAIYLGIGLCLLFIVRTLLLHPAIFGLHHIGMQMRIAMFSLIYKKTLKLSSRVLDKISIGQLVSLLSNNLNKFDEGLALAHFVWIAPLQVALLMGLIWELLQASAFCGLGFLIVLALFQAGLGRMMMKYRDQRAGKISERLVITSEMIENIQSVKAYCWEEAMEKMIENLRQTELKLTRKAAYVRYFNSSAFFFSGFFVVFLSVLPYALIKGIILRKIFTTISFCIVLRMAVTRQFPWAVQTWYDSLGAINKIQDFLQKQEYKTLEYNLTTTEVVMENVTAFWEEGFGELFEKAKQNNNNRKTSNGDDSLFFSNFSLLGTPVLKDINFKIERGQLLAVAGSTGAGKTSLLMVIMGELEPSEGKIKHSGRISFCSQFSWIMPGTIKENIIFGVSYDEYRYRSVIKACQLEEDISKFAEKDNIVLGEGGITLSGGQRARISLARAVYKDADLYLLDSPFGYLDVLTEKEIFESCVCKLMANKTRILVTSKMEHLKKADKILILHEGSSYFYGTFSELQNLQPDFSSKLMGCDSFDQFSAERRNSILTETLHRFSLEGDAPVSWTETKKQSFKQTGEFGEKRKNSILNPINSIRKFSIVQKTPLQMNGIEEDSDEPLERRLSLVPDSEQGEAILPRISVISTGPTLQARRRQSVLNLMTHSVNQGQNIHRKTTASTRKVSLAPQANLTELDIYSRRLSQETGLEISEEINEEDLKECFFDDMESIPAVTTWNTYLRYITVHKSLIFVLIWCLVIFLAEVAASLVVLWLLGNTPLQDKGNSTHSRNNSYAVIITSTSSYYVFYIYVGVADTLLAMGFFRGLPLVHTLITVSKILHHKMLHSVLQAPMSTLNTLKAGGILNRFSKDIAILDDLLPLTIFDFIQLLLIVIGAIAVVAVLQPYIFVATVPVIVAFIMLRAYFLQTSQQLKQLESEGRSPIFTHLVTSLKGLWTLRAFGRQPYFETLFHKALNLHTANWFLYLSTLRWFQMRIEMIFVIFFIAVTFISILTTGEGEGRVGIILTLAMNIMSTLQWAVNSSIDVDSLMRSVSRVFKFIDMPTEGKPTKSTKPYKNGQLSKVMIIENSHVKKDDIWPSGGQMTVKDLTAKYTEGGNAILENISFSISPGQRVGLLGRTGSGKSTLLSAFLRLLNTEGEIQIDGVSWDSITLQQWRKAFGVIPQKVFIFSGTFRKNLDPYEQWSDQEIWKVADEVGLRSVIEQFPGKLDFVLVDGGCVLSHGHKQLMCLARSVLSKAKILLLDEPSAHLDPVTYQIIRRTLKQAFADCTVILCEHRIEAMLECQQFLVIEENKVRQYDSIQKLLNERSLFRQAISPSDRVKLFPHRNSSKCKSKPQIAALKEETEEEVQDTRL
Experimental: For electrophysiological experiments, we used mouse mammary epithelial cells (C127 cells) stably expressing wild-type human CFTR or ΔF508, the most common CF-associated mutation (11). C127 cells expressing wild-type CFTR were cultured as previously described (12). C127 cells expressing ΔF508 were cultured at 28° C., to overcome the processing defect of ΔF508 and promote bs delivery to the cell membrane (13). Cells were seeded onto glass coverslips and used within either 48 h (wild-type CFTR) or 1 week (ΔF508).
CFTR Cl^− channels were recorded in excised inside-out membrane patches using an Axopatch 200A patch-clamp amplifier (Axon Instruments Inc., Foster City, USA) and pCLAMP data acquisition and analysis software (version 6.03, Axon Instruments Inc.) as previously described (12,14). The established sign convention was used throughout; currents produced by positive charge moving from intra- to extracellular solutions (anions moving in the opposite direction) are shown as positive currents.
The pipette (extracellular) solution contained (in mM): 140 N-methyl-D-glucamine (NMDG), 140 aspartic acid, 5 CaCl2, 2 MgSO4, and 10 N-tris[hydroxymethyl]methyl-2-aminoethanesulphonic acid (Tes), pH 7.3 with Tris ([Cl^−], 10 mM). The bath (intracellular) solution contained (in mM): 140 NMDG, 3 MgCl2, 1 ethylene glycol-bis(β-aminoethylether)-N,N,N′,N′-tetraacetic acid caesium salt (CsEGTA), and 10 Tes, pH 7.3 with HCl, ([Cl^−], 147 mM; [Ca^2+]free, <10^−8 M). All experiments were conducted at 37° C.
After excision of membrane patches from C127 cells. CFTR Cl^− channels were activated by the addition of the catalytic subunit of protein kinase A (PKA; 75 nM) and ATP (1.0 mM) to the intracellular solution within 5 min of patch excision. […] PKA was maintained in the intracellular solution for the duration of experiments. Voltage was −50 mV. […] The number of channels per patch was determined from the maximum number of simultaneous channel openings observed during the course of an experiment, as previously described (12). […] To investigate whether modulation of CFTR by fluorescein derivatives was voltage dependent, we used a voltage ramp protocol. Macroscopic current-voltage (I-V) relationships were obtained. In the absence and presence of fluorescein derivatives by averaging currents generated by 15-30 ramps of voltage, each of 2 s duration; holding voltage was −50 mV. Basal currents recorded in the absence of PKA and ATP were subtracted from those recorded in the absence and presence of fluorescein derivatives to determine the effect of fluorescein derivatives on CFTR Cl^− currents,
CFTR Cl^− currents were initially recorded on digital audiotape using a digital tape recorder (Biologic Scientific Instruments, model DTR-1204; lntracel Ltd, Royston, UK) at a bandwidth of 10 kHz. On playback, records were filtered with an eight-pole Bessel filter (Frequency Devices, model 902LPF2: Scensys Ltd, Aylesbury, UK) at a corner frequency of 500 Hz and acquired using a Digidata 1200 interface (Axon Instruments Inc.) and pCLAMP at sampling rates of either 2.5 kHz (time course studies) or 5.0 kHz (single-channel studies).
In time course studies, each point is the average current for a 4 s period with data points collected continuously, no data were collected while solutions were changed. Average current (I) for a specific intervention was determined as the average of all the data points collected during the intervention. The relationship between drug concentration and CFTR inhibition was fitted to the Hill equation:
IDrug/IControl=1/{1+([Drug]/Ki)^n}, (1)
where [Drug] is the concentration of drug, IDrug/IControl is the fractional current at the indicated drug concentration relative to that in the same solution in the absence of added drug, Ki is the drug concentration causing half-maximal inhibition, and n is the slope factor (Hill coefficient). Mean data were fitted to a linear form of equation (1) using linear least-squares regression to yield Ki and n values.

[2] = biological target: T1, wild-type human CFTR; assay: Single-channel recording of CFTR Cl- channels in excised inside-out membrane patches from C127 cells; assay type: biochemical
[3] = biological target: wild-type CFTR Cl- channels (Homo sapiens, UniProt P13569); conditions: reported by Wang et al. (18); cited from earlier work
wild-type CFTR Cl- channels, sequence (P13569 whole entry): as above

[4] = biological target: T2, ΔF508 CFTR (Homo sapiens, UniProt P13569, DEL508-508); assay: Single-channel recording of ΔF508 CFTR Cl- channels in excised patches from C127 cells grown at 28° C.; assay type: biochemical; conditions: 1 μM
T2 construct: expressed in transfected cells
T2 sequence (P13569 with tags, fused parts or gaps DEL508-508): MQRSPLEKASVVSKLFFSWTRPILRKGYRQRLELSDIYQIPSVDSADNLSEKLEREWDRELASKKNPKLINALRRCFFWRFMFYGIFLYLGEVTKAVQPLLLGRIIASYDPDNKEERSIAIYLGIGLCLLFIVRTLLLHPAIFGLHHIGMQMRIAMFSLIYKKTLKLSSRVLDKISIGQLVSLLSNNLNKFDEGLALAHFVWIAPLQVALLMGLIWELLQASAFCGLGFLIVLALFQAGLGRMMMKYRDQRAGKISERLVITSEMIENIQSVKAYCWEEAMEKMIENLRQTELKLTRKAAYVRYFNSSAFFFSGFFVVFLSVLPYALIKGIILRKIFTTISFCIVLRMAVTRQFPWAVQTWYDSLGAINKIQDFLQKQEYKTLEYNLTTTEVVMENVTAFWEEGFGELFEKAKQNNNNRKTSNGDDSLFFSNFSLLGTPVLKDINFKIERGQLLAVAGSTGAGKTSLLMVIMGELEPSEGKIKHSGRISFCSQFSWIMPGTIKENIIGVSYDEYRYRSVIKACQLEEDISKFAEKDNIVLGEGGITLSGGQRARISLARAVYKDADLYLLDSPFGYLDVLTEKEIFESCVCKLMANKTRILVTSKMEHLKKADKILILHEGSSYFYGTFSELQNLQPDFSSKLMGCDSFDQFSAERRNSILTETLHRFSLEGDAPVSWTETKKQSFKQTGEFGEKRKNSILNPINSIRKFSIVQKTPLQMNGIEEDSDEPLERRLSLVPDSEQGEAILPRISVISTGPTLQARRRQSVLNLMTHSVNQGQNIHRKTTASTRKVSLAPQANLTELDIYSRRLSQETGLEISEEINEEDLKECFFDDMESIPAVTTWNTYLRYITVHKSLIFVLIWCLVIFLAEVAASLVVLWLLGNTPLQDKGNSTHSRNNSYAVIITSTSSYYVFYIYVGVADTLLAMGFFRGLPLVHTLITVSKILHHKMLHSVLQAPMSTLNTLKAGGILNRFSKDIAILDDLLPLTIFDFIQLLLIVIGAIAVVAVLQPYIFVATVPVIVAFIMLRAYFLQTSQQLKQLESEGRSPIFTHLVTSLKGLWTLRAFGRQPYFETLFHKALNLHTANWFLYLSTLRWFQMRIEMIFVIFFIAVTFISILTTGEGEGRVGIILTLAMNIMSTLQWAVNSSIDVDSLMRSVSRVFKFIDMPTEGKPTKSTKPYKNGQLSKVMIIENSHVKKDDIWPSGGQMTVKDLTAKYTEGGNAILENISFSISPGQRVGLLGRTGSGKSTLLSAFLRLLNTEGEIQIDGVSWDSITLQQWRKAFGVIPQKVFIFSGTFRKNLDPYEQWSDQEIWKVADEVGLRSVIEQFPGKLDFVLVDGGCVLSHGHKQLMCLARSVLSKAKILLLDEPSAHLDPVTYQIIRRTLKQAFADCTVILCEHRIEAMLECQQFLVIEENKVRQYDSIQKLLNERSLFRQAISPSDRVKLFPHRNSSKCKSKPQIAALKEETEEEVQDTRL

[5] = biological target: T3, endogenous CFTR Cl- channels in Type I MDCK cells (Canis lupus familiaris, UniProt Q5U820); assay: cAMP-stimulated iodide efflux from Type I MDCK cells; assay type: cell-based, canine
T3 construct: Type I MDCK cells are kidney epithelial cells that endogenously express the CFTR Cl^− channel; endogenous in cells; host or cells: Type I MDCK cells
T3 sequence (Q5U820 whole entry): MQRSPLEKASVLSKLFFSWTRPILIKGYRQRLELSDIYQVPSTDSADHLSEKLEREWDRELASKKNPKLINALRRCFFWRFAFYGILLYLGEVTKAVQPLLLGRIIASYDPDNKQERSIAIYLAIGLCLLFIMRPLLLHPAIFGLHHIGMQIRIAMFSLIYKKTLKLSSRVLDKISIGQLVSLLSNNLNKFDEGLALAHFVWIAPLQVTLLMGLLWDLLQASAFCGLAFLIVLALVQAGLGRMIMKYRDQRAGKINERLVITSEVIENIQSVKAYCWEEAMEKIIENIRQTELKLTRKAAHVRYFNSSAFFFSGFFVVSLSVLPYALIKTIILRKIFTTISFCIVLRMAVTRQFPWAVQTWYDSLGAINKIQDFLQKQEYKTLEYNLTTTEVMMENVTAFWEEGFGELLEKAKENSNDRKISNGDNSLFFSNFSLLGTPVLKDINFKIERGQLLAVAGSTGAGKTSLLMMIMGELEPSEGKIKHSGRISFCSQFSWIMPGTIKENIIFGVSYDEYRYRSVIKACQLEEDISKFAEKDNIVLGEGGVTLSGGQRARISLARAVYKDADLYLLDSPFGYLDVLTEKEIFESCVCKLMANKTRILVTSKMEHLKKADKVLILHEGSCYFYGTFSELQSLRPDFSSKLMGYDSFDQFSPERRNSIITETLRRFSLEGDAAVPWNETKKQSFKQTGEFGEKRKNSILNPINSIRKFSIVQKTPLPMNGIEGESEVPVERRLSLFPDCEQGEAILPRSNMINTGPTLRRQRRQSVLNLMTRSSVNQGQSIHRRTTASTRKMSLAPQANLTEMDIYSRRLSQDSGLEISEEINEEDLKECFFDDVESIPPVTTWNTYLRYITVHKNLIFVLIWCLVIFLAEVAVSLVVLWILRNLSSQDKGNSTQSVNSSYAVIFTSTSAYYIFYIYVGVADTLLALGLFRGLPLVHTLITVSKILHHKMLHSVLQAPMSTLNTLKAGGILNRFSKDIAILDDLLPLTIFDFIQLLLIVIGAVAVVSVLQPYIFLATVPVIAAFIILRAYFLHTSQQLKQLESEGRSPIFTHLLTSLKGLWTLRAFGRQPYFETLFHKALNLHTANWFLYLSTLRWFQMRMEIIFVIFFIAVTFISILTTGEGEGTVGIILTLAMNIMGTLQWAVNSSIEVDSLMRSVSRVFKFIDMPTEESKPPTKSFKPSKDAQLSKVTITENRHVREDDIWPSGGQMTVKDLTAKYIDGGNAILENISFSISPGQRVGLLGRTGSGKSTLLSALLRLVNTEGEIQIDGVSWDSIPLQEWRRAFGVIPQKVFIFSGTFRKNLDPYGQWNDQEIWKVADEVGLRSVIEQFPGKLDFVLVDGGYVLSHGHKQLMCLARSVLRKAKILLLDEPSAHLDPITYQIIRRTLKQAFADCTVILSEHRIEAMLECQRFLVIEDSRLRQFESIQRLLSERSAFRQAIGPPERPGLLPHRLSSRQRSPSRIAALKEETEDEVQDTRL
Experimental: For iodide efflux experiments, we used Type I Mardin-Darby canine kidney (MDCK) cells. MDCK cells were cultured in MDCK media (a 1:1 mixture of Dulbecco's Modified Eagle Medium (DMEM) and Ham's F-12 nutrient medium supplemented with 10% fetal bovine serum, 100 U ml^1 penicillin, and […] ml^−streptomycin; all from Life Technologies Ltd, Paisley, UK) at 37° C. in a humidified atmosphere of 5% CO2. Cells were seeded onto 60 mm plastic culture dishes and used 72-96 h later.
Type I MDCK cells (≧90% confluent) were incubated for 1 h in a loading buffer containing (mM): 136 Nal, 3 KNO3, 2 Ca(NO3)2, 11 glucose, and 20 Hepes, adjusted to pH 7.4 with NaOH. […] The efflux buffer was changed at 1 min intervals over the duration of the experiment, which typically lasted 18 min. Four minutes after anion substitution, cells were exposed to agonists for 4 min. The amount of iodide in each 2.5 ml sample of efflux buffer was determined using an iodide-selective electrode (Russell pH Ltd. Auchtermuchty, UK). Cells were loaded and experiments performed at room temperature (23° C.).
Type I MDCK cells are kidney epithelial cells that endogenously express the CFTR Cl^− channel (20).
Nitrate was substituted for iodide in the bathing medium at t=−4 min and iodide efflux was monitored at 1 min intervals, for the duration of the experiment.

[6] = biological target: T4, KATP currents (Homo sapiens, UniProt Q09428+Q14654); conditions: added to the extracellular solution; de Weille et al. (10); cited from earlier work
T4 construct: host or cells: pancreatic β-cells

[7] = eosin Y 100 μM, symmetrical 147 mM Cl-, ATP 1 mM
[8] = 1 μM, ATP 0.3 mM, PKA 75 nM, -50 mV

O=C1OC2(c3ccc(O)cc3Oc3cc(O)ccc32)c2ccccc21 [fluorescein]
effect on CFTR Cl- currents (concentration-response, FIG. 3) ([1]; -50 mV): only inhibited

Nc1ncnc2c1ncn2[C@@H]1O[C@H](COP(=O)(O)OP(=O)(O)OP(=O)(O)O)[C@@H](O)[C@H]1O [ATP, reference compound]
EC50 ([1]; PKA-phosphorylated channels, read-out: EC50 for activation of CFTR Cl- channels by intracellular ATP): 300 µM

O=C1OC2(c3ccccc31)c1cc(Br)c(O)c(Br)c1Oc1c2cc(Br)c(O)c1Br [eosin Y]
effect on CFTR Cl- currents (concentration-response, FIG. 3) ([1]; -50 mV): stimulated and inhibited
effect on channel activity at positive voltages [1, 7]: channel activity is stimulated
effect on channel activity at negative voltages [1, 7]: inhibits channel activity
open probability (Po) [2, 8]: 0.43±0.02

Nc1ncnc2c1ncn2[C@@H]1O[C@H](COP(=O)(O)OP(=O)(O)O)[C@@H](O)[C@H]1O [ADP, reference compound]
Po ([2]; ADP 0.3 mM alone, ATP 0.3 mM, PKA 75 nM): 0.21±0.02
Po as % of the control value ([2]; ADP 0.3 mM, ATP 0.3 mM, PKA 75 nM): 49±1%

O=C1OC2(c3cc(I)c(O)c(I)c3Oc3c2cc(I)c(O)c3I)c2c(Cl)c(Cl)c(Cl)c(Cl)c21 [bengal rose B]
effect on CFTR Cl- currents (concentration-response, FIG. 3) ([1]; -50 mV): stimulated and inhibited
concentrations that stimulated CFTR Cl- currents ([1]; ATP 0.3 mM, PKA 75 nM, -50 mV): 0.1 to 1.0 µM
concentration that maximally stimulated channel activity [1]: 1 µM
open probability (Po) [2, 8]: 0.40±0.08

O=C1OC2(c3ccc(O)cc3Oc3cc(O)ccc32)c2c(Cl)c(Cl)c(Cl)c(Cl)c21 [tetrachlorofluorescein]
effect on CFTR Cl- currents (concentration-response, FIG. 3) ([1]; -50 mV): only inhibited

O=c1c(-c2ccc(O)cc2)coc2cc(O)cc(O)c12 [genistein, 5,7-dihydrox-3-(4-hydroxyphenyl)-4H-1-benzopyran-4-one]
concentration that maximally stimulated wild-type CFTR Cl- channels [3]: 35 µM

O=C(O)c1c(Cl)c(Cl)c(Cl)c(Cl)c1-c1c2cc(Br)c(=O)c(Br)c-2oc2c(Br)c(O)c(Br)cc12 [phloxine B]
Ki [1]: 17 µM
reversibility of modulation of CFTR [1]: partially reversible
effect on CFTR Cl- currents (concentration-response, FIG. 3) ([1]; -50 mV): stimulated and inhibited
n (Hill coefficient) of current inhibition ([1]; -50 mV): 2
concentrations causing concentration-dependent decrease in CFTR Cl- current ([1]; ATP 0.3 mM, PKA 75 nM, -50 mV): 20 to 50 µM
concentrations that stimulated CFTR Cl- currents ([1]; ATP 0.3 mM, PKA 75 nM, -50 mV): 1 to 5 µM
effect on the activity of CFTR Cl- channels ([1]; added to intracellular solution in the absence of either ATP or PKA): without effect
effect on channel activity at positive voltages [1, 7]: relieve channel block by phloxine B (40 μM), but do not stimulate channel activity
concentration that maximally stimulated channel activity [1]: 5 µM
open probability (Po) [2, 8]: large increase in Po
single-channel current amplitude (i) [2, 8]: small, but significant (P<0.05), reduction
interburst interval ([2]; 1 μM, single active channel): no change; also recorded: without effect
mean burst duration ([2]; 1 μM, single active channel): large increase in the duration of bursts; also recorded: significantly increased
Po in the presence of ADP ([2]; ADP 0.3 mM + phloxine B 1 μM, ATP 0.3 mM, PKA 75 nM): 0.43±0.05
maximum Po (Pomax), Michaelis-Menten fit ([2]; in the presence of phloxine B 1 μM): 0.72
interburst interval of ΔF508 [4]: without altering
mean burst duration of ΔF508 CFTR Cl channels [4]: dramatically prolonging
increase of the Po of ΔF508 ([4]; ATP 1.0 mM, PKA 75 nM): 1.5 fold
effect on iodide efflux in the absence of cAMP agonists ([5]; 10 μM): without effect
effect on cAMP-stimulated iodide efflux ([5]; 10 μM with cAMP agonists): enhanced both the speed and magnitude
effect on KATP currents in pancreatic β-cells [6]: inhibits KATP currents
